Experimental data taken from patent US10087188B2, “Benzamide imidazopyrazine Btk inhibitors” (MERCK SHARP & DOHME CORP., priority 2014, dated 2018).

Experiments:
HeLa cells = assay: [3H] Adenosine uptake assay; format: cell-based; details: Homo sapiens, HeLa, accumulation of tritiated adenosine into HeLa cells; compound concentration range 10 μM to 0.032 nM; read-out: ADU inhibition IC50 (adenosine uptake inhibition potency)
Method in brief: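 HeLa cells in HBSS + 5% FBS preincubated 30 min at ambient temperature with compound (0.25% DMSO), then [3H]adenosine (500 nM stock) added for 60 min. Uptake measured by scintillation proximity counting; IC50 from 4-parameter fit of counts vs log concentration.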

[1] = target: BTK enzyme (recombinant full-length BTK, hBTK) (Homo sapiens (Human), UniProt Q06187); assay: Btk enzyme activity assay, LANCE TR-FRET; format: biochemical; details: 50 pM hBTK, 2 μM biotin-A5-peptide, 25 μM ATP; 60 minute compound & enzyme incubation; read-out: BTK binding IC50
Description: Btk Enzyme Activity Assay Methods
BTK enzymatic activity was determined with the LANCE (Lanthanide Chelate Excite) TR-FRET (Time-resolved fluorescence resonance energy transfer) assay. […] After 60 minutes incubation with detection reagents, reaction plates were read on a PerkinElmer EnVision plate reader using standard TR-FRET protocol.

BTK enzyme (recombinant full-length BTK, hBTK), sequence (Q06187 whole entry): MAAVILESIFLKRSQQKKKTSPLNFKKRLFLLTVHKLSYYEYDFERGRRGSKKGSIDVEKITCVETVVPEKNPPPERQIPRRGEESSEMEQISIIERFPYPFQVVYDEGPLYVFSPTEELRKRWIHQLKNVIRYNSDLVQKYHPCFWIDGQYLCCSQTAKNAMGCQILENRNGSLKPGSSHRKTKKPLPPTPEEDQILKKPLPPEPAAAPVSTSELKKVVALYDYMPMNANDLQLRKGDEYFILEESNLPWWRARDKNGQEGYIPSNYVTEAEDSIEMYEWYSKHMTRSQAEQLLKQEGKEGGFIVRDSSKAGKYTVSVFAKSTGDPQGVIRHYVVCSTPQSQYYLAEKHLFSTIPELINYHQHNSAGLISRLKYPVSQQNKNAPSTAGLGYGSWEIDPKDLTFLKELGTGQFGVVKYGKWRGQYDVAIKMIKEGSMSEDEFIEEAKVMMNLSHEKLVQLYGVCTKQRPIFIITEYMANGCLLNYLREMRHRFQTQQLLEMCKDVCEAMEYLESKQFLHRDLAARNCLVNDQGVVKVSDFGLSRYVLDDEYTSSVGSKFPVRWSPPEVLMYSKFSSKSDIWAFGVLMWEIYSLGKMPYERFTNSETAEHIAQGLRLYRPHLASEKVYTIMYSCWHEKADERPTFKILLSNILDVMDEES

IC50 (HeLa cells) [nM] | IC50 [1] [nM] | Compound
3160 | 0.76 | C[C@H]1CO[C@@H](c2nc(-c3ccc(C(=O)Nc4cc(C5CC5)ccn4)cc3F)c3c(N)ncc(Cl)n23)CN1[C@H]1CC[C@](C)(C(=O)O)CC1 [Example 209, trans-4-[(2R,5S)-2-(8-amino-5-chloro-1-{4-[(4-cyclopropylpyridin-2-yl)carbamoyl]-2-fluorophenyl}imidazo[1,5-a]pyrazin-3-yl)-5-methylmorpholin-4-yl]-1-methylcyclohexanecarboxylic acid]
6270 | 1.5 | C[C@H]1CO[C@@H](c2nc(-c3ccc(C(=O)Nc4cc(C5CC5)ccn4)cc3F)c3c(N)nccn23)CN1[C@H]1CC[C@](C)(C(=O)O)CC1 [Example 210, trans-4-[(2R,5S)-2-(8-amino-1-{4-[(4-cyclopropylpyridin-2-yl)carbamoyl]-2-fluorophenyl}imidazo[1,5-a]pyrazin-3-yl)-5-methylmorpholin-4-yl]-1-methylcyclohexanecarboxylic acid]
